Laboratory results as given in PubChem BioAssay AID1963829 (Molecular Pharmacology Branch, DTP, NCI, 2024).
pIC50: −log10 of the molar value.

Test system: 935938-334-R-J1-PDC complex spheroid viability
Assay: Anticancer human tumor 935938-334-R-J1-PDC patient-derived small intestine adenocarcinoma cell line growth inhibition [POLQ]
Conditions: for pIC50: curve of first compound; for viability, T/C: stronger effect = lower value
Summary of the method: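 Patient-derived tumour cells were co-cultured with HUVEC and mesenchymal stem cells as multicellular spheroids at 37 °C. They were treated with POLQ inhibitors (novobiocin, ART-558, RP6685) alone or combined with other agents. Top concentrations were at or near clinical Cmax (otherwise 10 microM; SN-38 at 1 microM), decreasing in half-log steps.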

[1] = second compound 0.0316 µM, first compound 0.0316 µM
[2] = second compound 0.0316 µM, first compound 0.1 µM
[3] = second compound 0.0316 µM, first compound 0.316 µM
[4] = second compound 0.0316 µM, first compound 1 µM
[5] = second compound 0.0316 µM, first compound 3.16 µM
[6] = second compound 0.0316 µM, first compound 10 µM
[7] = second compound 0.1 µM, first compound 0.0316 µM
[8] = second compound 0.1 µM, first compound 0.1 µM
[9] = second compound 0.1 µM, first compound 0.316 µM
[10] = second compound 0.1 µM, first compound 1 µM
[11] = second compound 0.1 µM, first compound 3.16 µM
[12] = second compound 0.1 µM, first compound 10 µM
[13] = second compound 0.316 µM, first compound 0.0316 µM
[14] = second compound 0.316 µM, first compound 0.1 µM
[15] = second compound 0.316 µM, first compound 0.316 µM
[16] = second compound 0.316 µM, first compound 1 µM
[17] = second compound 0.316 µM, first compound 3.16 µM
[18] = second compound 0.316 µM, first compound 10 µM
[19] = second compound 1 µM, first compound 0.0316 µM
[20] = second compound 1 µM, first compound 0.1 µM
[21] = second compound 1 µM, first compound 0.316 µM
[22] = second compound 1 µM, first compound 1 µM
[23] = second compound 1 µM, first compound 3.16 µM
[24] = second compound 1 µM, first compound 10 µM
[25] = second compound 3.16 µM, first compound 0.0316 µM
[26] = second compound 3.16 µM, first compound 0.1 µM
[27] = second compound 3.16 µM, first compound 0.316 µM
[28] = second compound 3.16 µM, first compound 1 µM
[29] = second compound 3.16 µM, first compound 3.16 µM
[30] = second compound 3.16 µM, first compound 10 µM
[31] = second compound 10 µM, first compound 0.0316 µM
[32] = second compound 10 µM, first compound 0.1 µM
[33] = second compound 10 µM, first compound 0.316 µM
[34] = second compound 10 µM, first compound 1 µM
[35] = second compound 10 µM, first compound 3.16 µM
[36] = second compound 10 µM, first compound 10 µM
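Note: spheroids exposed to drugs for seven days before viability read.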
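Throughout, for viability, T/C: 100% = DMSO vehicle control wells.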

For `CC1COCCN1c1cc(C2(O)CC3CCC(C2)O3)c2cnn(-c3ccn[nH]3)c2n1` (centres undefined) + COC1C(OC(N)=O)C(O)C(Oc2ccc3c(O)c(NC(=O)c4ccc(O)c(CC=C(C)C)c4)c(=O)oc3c2C)OC1(C)C, the pIC50 (second compound 0.0316 µM) was 6.61, the pIC50 (second compound 0.1 µM) was 6.68 and the pIC50 (second compound 0.316 µM) was 6.77. The pIC50 (second compound 1 µM) was 6.67, the pIC50 (second compound 3.16 µM) was 6.75 and the pIC50 (second compound 10 µM) was 7.01. For the same compound, the viability, T/C [1] was 82.5%, the viability, T/C [2] was 71.2% and the viability, T/C [3] was 43.8%. The viability, T/C [4] was 20.1%, the viability, T/C [5] was 14.7% and the viability, T/C [6] was 8.68%. The viability, T/C [7] was 114%, the viability, T/C [8] was 71.9% and the viability, T/C [9] was 36.4%. For the same compound, the viability, T/C [10] was 21.1%, the viability, T/C [11] was 18.7% and the viability, T/C [12] was 9.26%. The viability, T/C [13] was 75.7%, the viability, T/C [14] was 65.8% and the viability, T/C [15] was 30.4%. For the same compound, the viability, T/C [16] was 21.5%, the viability, T/C [17] was 16.8% and the viability, T/C [18] was 11.5%. For the same compound, the viability, T/C [19] was 79.1%, the viability, T/C [20] was 78.6% and the viability, T/C [21] was 35.8%. For the same compound, the viability, T/C [22] was 23.2%, the viability, T/C [23] was 13.5% and the viability, T/C [24] was 11.3%. The viability, T/C [25] was 102%, the viability, T/C [26] was 63.3% and the viability, T/C [27] was 36.5%. The viability, T/C [28] was 20.9%, the viability, T/C [29] was 15.1% and the viability, T/C [30] was 10.2%. The viability, T/C [31] was 88.2%, the viability, T/C [32] was 48.9% and the viability, T/C [33] was 27.9%. For the same compound, the viability, T/C [34] was 16.6%, the viability, T/C [35] was 15.7% and the viability, T/C [36] was 8.92%.
In the case of `CNCc1ccc(-c2[nH]c3cc(F)cc4c3c2CCNC4=O)cc1` + Cc1cccc(N(C)C(=O)C2C(O)CCN2c2nc(C)cc(C(F)(F)F)c2C#N)c1, the pIC50 (second compound 0.0316 µM) was less than 5.00, the pIC50 (second compound 0.1 µM) was less than 5.00 and the pIC50 (second compound 0.316 µM) was less than 5.00. It also gave a pIC50 (second compound 1 µM) of less than 5.00, a pIC50 (second compound 3.16 µM) of less than 5.00 and a pIC50 (second compound 10 µM) of less than 5.00. The viability, T/C [1] was 90.2%, the viability, T/C [2] was 97.7% and the viability, T/C [3] was 101%. The viability, T/C [4] was 115%, the viability, T/C [5] was 108% and the viability, T/C [6] was 81.8%. The viability, T/C [7] was 107%, the viability, T/C [8] was 64.9% and the viability, T/C [9] was 78.2%. It also gave a viability, T/C [10] of 94.9%, a viability, T/C [11] of 90.6% and a viability, T/C [12] of 76.8%. It also gave a viability, T/C [13] of 85.5%, a viability, T/C [14] of 94.5% and a viability, T/C [15] of 97.2%. The viability, T/C [16] was 97.2%, the viability, T/C [17] was 125% and the viability, T/C [18] was 99.9%. It also gave a viability, T/C [19] of 106%, a viability, T/C [20] of 78.6% and a viability, T/C [21] of 88.5%. For the same compound, the viability, T/C [22] was 100%, the viability, T/C [23] was 93.2% and the viability, T/C [24] was 112%. It also gave a viability, T/C [25] of 88.9%, a viability, T/C [26] of 118% and a viability, T/C [27] of 88.1%. It also gave a viability, T/C [28] of 102%, a viability, T/C [29] of 133% and a viability, T/C [30] of 99.5%. The viability, T/C [31] was 122%, the viability, T/C [32] was 80.7% and the viability, T/C [33] was 96.2%. For the same compound, the viability, T/C [34] was 83.2%, the viability, T/C [35] was 121% and the viability, T/C [36] was 102%.
